The source made the active and inactive calls. The rule behind the calls is not given here. Bridge positions count the residues as written; N and C are the ends. Square brackets hold non-standard residues; d marks the D form. Side chains are listed from the residue outwards. Peptide text beside a SMILES is read from it. I, II: the chains in the order shown. ξ: configuration not given here. Gly(N-piperonyl) = O=C(O)CNCc1ccc2c(c1)OCO2; N(4-MeOBn)Gly = COc1ccc(CNCC(=O)O)cc1; Nrpe = C[C@@H](NCC(=O)O)c1ccccc1; NAllylGly = C=CCNCC(=O)O; AEEA = NCCOCCOCC(=O)O; Nlys = NCCCCNCC(=O)O; ξK = NCCCCC(N)C(=O)O; ξM = CSCCC(N)C(=O)O; Nme = COCCNCC(=O)O; βAla = NCCC(=O)O
Each molecule was assayed on HCC4017 (assay: Cytotoxicity against human HCC4017 cells assessed as decrease in cell viability at 0.001 to 50 uM after 24 hrs by calcein AM dye-based fluorescence assay).
Assay type: functional

Row | SMILES | Activity
1 | COc1ccc(CN(CC(=O)NC(CCCCNC(=O)C(CCCCNC(=O)C(CCCCN)NC(=O)C(CCCCN)NC(=O)C(CCSC)NC(=O)CN)NC(=O)CN(Cc2ccc(OC)cc2)C(=O)CN(C(=O)CN(Cc2ccc3c(c2)OCO3)C(=O)CN[C@H](C)c2ccccc2)[C@H](C)c2ccccc2)C(=O)NCCCCC(NC(=O)CN(Cc2ccc(OC)cc2)C(=O)CN(C(=O)CN(Cc2ccc3c(c2)OCO3)C(=O)CN[C@H](C)c2ccccc2)[C@H](C)c2ccccc2)C(=O)NC(CCCCN)C(=O)NC(CCCCN)C(=O)NC(CCSC)C(N)=O)C(=O)CN(C(=O)CN(Cc2ccc3c(c2)OCO3)C(=O)CN[C@H](C)c2ccccc2)[C@H](C)c2ccccc2)cc1 (some centres undefined) (I: H-[Nrpe][Gly(N-piperonyl)][Nrpe][N(4-MeOBn)Gly][ξK][ξK][ξK][ξM]-NH2 / II: H-[Nrpe][Gly(N-piperonyl)][Nrpe][N(4-MeOBn)Gly][ξK]([ξK-ξK-ξM-Gly]) / III: H-[Nrpe][Gly(N-piperonyl)][Nrpe][N(4-MeOBn)Gly][ξK]; amide I:5-III:C, II:C-III:5) | Active

These molecules were tested on HCC4017 (assay: Cytotoxicity against human HCC4017 cells assessed as decrease in cell viability at 0.001 to 50 uM after 24 hrs by MTS assay).
Assay type: functional, cell-based

Row | SMILES | Activity
2 | COc1ccc(CN(CC(=O)N(CCCCN)CC(=O)NC(CCCCN)C(=O)NC(CCCCN)C(=O)NC(CCSC)C(N)=O)C(=O)CN(C(=O)CN(Cc2ccc3c(c2)OCO3)C(=O)CN[C@H](C)c2ccccc2)[C@H](C)c2ccccc2)cc1 (some centres undefined) (H-[Nrpe][Gly(N-piperonyl)][Nrpe][N(4-MeOBn)Gly][Nlys][ξK][ξK][ξM]-NH2) | inactive
3 | COc1ccc(CN(CC(=O)NC(CCCCNC(=O)C(CCCCN)NC(=O)C(CCCCN)NC(=O)CN)C(=O)NC(CCCCN)C(=O)NC(CCCCN)C(N)=O)C(=O)CN(C(=O)CN(Cc2ccc3c(c2)OCO3)C(=O)CN[C@H](C)c2ccccc2)[C@H](C)c2ccccc2)cc1 (some centres undefined) (H-[Nrpe][Gly(N-piperonyl)][Nrpe][N(4-MeOBn)Gly][ξK]([ξK-ξK-Gly])[ξK][ξK]-NH2) | inactive
4 | COc1ccc(CN(CC(=O)NC(CCCCNC(=O)C(CCCCN)NC(=O)C(CCCCN)NC(=O)CN)C(=O)NCCOCCOCC(=O)NCCC(=O)NCCCCC(NC(=O)CN(Cc2ccc(OC)cc2)C(=O)CN(C(=O)CN(Cc2ccc3c(c2)OCO3)C(=O)CN[C@H](C)c2ccccc2)[C@H](C)c2ccccc2)C(=O)NC(CCCCN)C(=O)NC(CCCCN)C(=O)NC(CCSC)C(N)=O)C(=O)CN(C(=O)CN(Cc2ccc3c(c2)OCO3)C(=O)CN[C@H](C)c2ccccc2)[C@H](C)c2ccccc2)cc1 (some centres undefined) (I: H-[Nrpe][Gly(N-piperonyl)][Nrpe][N(4-MeOBn)Gly][ξK][ξK][ξK][ξM]-NH2 / II: H-[Nrpe][Gly(N-piperonyl)][Nrpe][N(4-MeOBn)Gly][ξK]([ξK-ξK-Gly])[AEEA][βAla]; amide I:5-II:C) | Active
5 | C=CCNCC(=O)N(CCOC)CC(=O)N(CC=C)CC(=O)N(CCOC)CC(=O)N(CC=C)CC(=O)NCC(=O)NC(CCCCN)C(=O)NC(CCSC)C(=O)NCCCCC(NC(=O)C(CCSC)NC(=O)C(CCCCN)NC(=O)CNC(=O)CN(CC=C)C(=O)CN(CCOC)C(=O)CN(CC=C)C(=O)CN(CCOC)C(=O)CNCC=C)C(N)=O (centres undefined) (I: H-[NAllylGly][Nme][NAllylGly][Nme][NAllylGly]GKMK-NH2 / II: H-[NAllylGly][Nme][NAllylGly][Nme][NAllylGly]GKM; amide I:9-II:C; configuration not given here) | inactive
6 | COc1ccc(CN(CC(=O)N(CCCCN)CC(=O)NC(CCCCN)C(=O)NC(CCCCN)C(=O)NC(CCSC)C(=O)NCCCCC(NC(=O)C(CCSC)NC(=O)C(CCCCN)NC(=O)C(CCCCN)NC(=O)CN(CCCCN)C(=O)CN(Cc2ccc(OC)cc2)C(=O)CN(C(=O)CN(Cc2ccc3c(c2)OCO3)C(=O)CN[C@H](C)c2ccccc2)[C@H](C)c2ccccc2)C(N)=O)C(=O)CN(C(=O)CN(Cc2ccc3c(c2)OCO3)C(=O)CN[C@H](C)c2ccccc2)[C@H](C)c2ccccc2)cc1 (some centres undefined) (I: H-[Nrpe][Gly(N-piperonyl)][Nrpe][N(4-MeOBn)Gly][Nlys][ξK][ξK][ξM][ξK]-NH2 / II: H-[Nrpe][Gly(N-piperonyl)][Nrpe][N(4-MeOBn)Gly][Nlys][ξK][ξK][ξM]; amide I:9-II:C) | Active
7 | COc1ccc(CN(CC(=O)NC(CCCCNC(=O)C(CCCCN)NC(=O)C(CCCCN)NC(=O)CN)C(=O)NCCC(=O)NCCCCC(NC(=O)CN(Cc2ccc(OC)cc2)C(=O)CN(C(=O)CN(Cc2ccc3c(c2)OCO3)C(=O)CN[C@H](C)c2ccccc2)[C@H](C)c2ccccc2)C(=O)NC(CCCCN)C(=O)NC(CCCCN)C(=O)NC(CCSC)C(N)=O)C(=O)CN(C(=O)CN(Cc2ccc3c(c2)OCO3)C(=O)CN[C@H](C)c2ccccc2)[C@H](C)c2ccccc2)cc1 (some centres undefined) (I: H-[Nrpe][Gly(N-piperonyl)][Nrpe][N(4-MeOBn)Gly][ξK][ξK][ξK][ξM]-NH2 / II: H-[Nrpe][Gly(N-piperonyl)][Nrpe][N(4-MeOBn)Gly][ξK]([ξK-ξK-Gly])[βAla]; amide I:5-II:C) | Active
8 | COc1ccc(CN(CC(=O)NC(CCCCNC(=O)C(CCCCN)NC(=O)C(CCCCN)NC(=O)CN)C(=O)NCCCCC(NC(=O)CN(Cc2ccc(OC)cc2)C(=O)CN(C(=O)CN(Cc2ccc3c(c2)OCO3)C(=O)CN[C@H](C)c2ccccc2)[C@H](C)c2ccccc2)C(=O)NC(CCCCN)C(=O)NC(CCCCN)C(=O)NC(CCSC)C(N)=O)C(=O)CN(C(=O)CN(Cc2ccc3c(c2)OCO3)C(=O)CN[C@H](C)c2ccccc2)[C@H](C)c2ccccc2)cc1 (some centres undefined) (I: H-[Nrpe][Gly(N-piperonyl)][Nrpe][N(4-MeOBn)Gly][ξK][ξK][ξK][ξM]-NH2 / II: H-[Nrpe][Gly(N-piperonyl)][Nrpe][N(4-MeOBn)Gly][ξK]([ξK-ξK-Gly]); amide I:5-II:C) | Active
9 | COc1ccc(CN(CC(=O)NC(CCCCNC(=O)C(CCCCNC(=O)C(CCCCN)NC(=O)C(CCCCN)NC(=O)C(CCSC)NC(=O)CN)NC(=O)CN(Cc2ccc(OC)cc2)C(=O)CN(C(=O)CN(Cc2ccc3c(c2)OCO3)C(=O)CN[C@H](C)c2ccccc2)[C@H](C)c2ccccc2)C(=O)NCCCCC(NC(=O)CN(Cc2ccc(OC)cc2)C(=O)CN(C(=O)CN(Cc2ccc3c(c2)OCO3)C(=O)CN[C@H](C)c2ccccc2)[C@H](C)c2ccccc2)C(=O)NC(CCCCN)C(=O)NC(CCCCN)C(=O)NC(CCSC)C(N)=O)C(=O)CN(C(=O)CN(Cc2ccc3c(c2)OCO3)C(=O)CN[C@H](C)c2ccccc2)[C@H](C)c2ccccc2)cc1 (some centres undefined) (I: H-[Nrpe][Gly(N-piperonyl)][Nrpe][N(4-MeOBn)Gly][ξK][ξK][ξK][ξM]-NH2 / II: H-[Nrpe][Gly(N-piperonyl)][Nrpe][N(4-MeOBn)Gly][ξK]([ξK-ξK-ξM-Gly]) / III: H-[Nrpe][Gly(N-piperonyl)][Nrpe][N(4-MeOBn)Gly][ξK]; amide I:5-III:C, II:C-III:5) | Active

— ChEMBL document CHEMBL4118060, “A unique mid-sequence linker used to multimerize the lipid-phosphatidylserine (PS) binding peptide-peptoid hybrid PPS1” (Eur J Med Chem, 2017)
